Experimental data taken from PubChem BioAssay (NCI).
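In this assay, cells in 96-well plates receive the compound at five concentrations for 48 hours. Endpoints are linearly interpolated between the surrounding concentrations. GI50 = concentration required for 50% inhibition of growth. Definition used: TGI = concentration required for complete inhibition of growth.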

What was measured:
Experiment in all cases: NCI anticancer screen, dose series, 48 h
CCRF-CEM leukemia = test system: CCRF-CEM leukemia
K-562 leukemia = test system: K-562 leukemia
LOX IMVI melanoma = test system: LOX IMVI melanoma
NCI-H23 lung = test system: NCI-H23 lung
NCI-H522 lung = test system: NCI-H522 lung
SK-OV-3 ovarian = test system: SK-OV-3 ovarian
SR leukemia = test system: SR leukemia
U251 CNS = test system: U251 CNS

SMILES	GI50 (CCRF-CEM leukemia)	TGI (CCRF-CEM leukemia)	GI50 (K-562 leukemia)	TGI (K-562 leukemia)	GI50 (LOX IMVI melanoma)	TGI (LOX IMVI melanoma)	GI50 (NCI-H23 lung)	TGI (NCI-H23 lung)	GI50 (NCI-H522 lung)	TGI (NCI-H522 lung)	GI50 (SK-OV-3 ovarian)	TGI (SK-OV-3 ovarian)	GI50 (SR leukemia)	TGI (SR leukemia)	GI50 (U251 CNS)	TGI (U251 CNS)
Cc1cc(NN=C(c2ccc(O)cc2)c2ccc(O)cc2)c([N+](=O)[O-])cc1[N+](=O)[O-]	3.33 µM	34 µM	92.7 µM	> 100 µM	3.8 µM	21.2 µM	3.8 µM	47.3 µM	1.08 µM	11.4 µM	2.98 µM	19.9 µM	5.55 µM	50.2 µM	5.39 µM	81.2 µM
C[C@@H]1CCc2ncc(F)cc2[C@H]2CCCN2c2ccn3ncc(c3n2)C(=O)N1	> 100 µM	> 100 µM	29.8 µM	> 100 µM	33.1 µM	> 100 µM	> 100 µM	> 100 µM	83.7 µM	> 100 µM	91.7 µM	> 100 µM	4.38 µM	> 100 µM	> 100 µM	> 100 µM
C[As](C)SC1OCC(O)C(O)C1O (stereo unspecified)	0.4 µM	6.42 µM	0.0495 µM	0.378 µM	0.199 µM	0.566 µM	0.281 µM	1.76 µM	0.0712 µM	0.211 µM	0.211 µM	4.47 µM	0.0255 µM	0.0849 µM	0.46 µM	1.71 µM
O=CN1N=C(c2cccc(Nc3ccnc4cc(Cl)ccc34)c2)CC1c1ccc(Cl)cc1 (stereo unspecified)	2.34 µM	> 100 µM	0.413 µM	> 100 µM	1.56 µM	10.3 µM	2.48 µM	> 100 µM	0.798 µM	70.1 µM	3.48 µM	56.9 µM	0.367 µM	2.13 µM	1.29 µM	20.7 µM
COc1ccc(/C=C/C(=O)c2cc3c(N)c(C(=O)Nc4ccc(OC)cc4)sc3nc2C)cc1	0.567 µM	> 50 µM	0.385 µM	> 50 µM	1.06 µM	11.3 µM	0.181 µM	–	0.178 µM	> 26.5 µM	0.215 µM	> 50 µM	0.889 µM	> 50 µM	1.65 µM	> 30.9 µM
Nn1c(-c2ccc(Cl)cc2)nc2c(-c3ccc(Cl)cc3)nc3ccc(Cl)cc3c2c1=O	–	1.11 µM	11.4 µM	48.5 µM	5.77 µM	32.9 µM	33 µM	> 100 µM	20.9 µM	> 100 µM	14.5 µM	40.3 µM	4.08 µM	20.2 µM	3.07 µM	12.7 µM
COCC(C(=O)OC1C/C=C/C=C/C(=O)OC(C(C)C(O)C(C)CCC(OC(=O)C(C)N(C)C)C(C)C(OC(C)=O)C(C)/C=C/N(C)C=O)C/C=C/C(OC)CC(C)C/C=C(\C)C(OC)CCC(C)C(O)C1C)N(C)C (stereo unspecified)	< 0.0001 µM	0.0139 µM	< 0.0001 µM	0.116 µM	< 0.0001 µM	0.00377 µM	< 0.0001 µM	> 0.666 µM	< 0.0001 µM	< 0.0001 µM	< 0.0001 µM	0.0164 µM	< 0.0001 µM	0.00341 µM	< 0.0001 µM	0.154 µM
N#[N+]c1ccc(Nc2ccccc2)cc1	> 50 µg/mL	> 50 µg/mL	> 50 µg/mL	> 50 µg/mL	> 50 µg/mL	> 50 µg/mL	> 50 µg/mL	> 50 µg/mL	> 50 µg/mL	> 50 µg/mL	> 50 µg/mL	> 50 µg/mL	> 50 µg/mL	> 50 µg/mL	> 50 µg/mL	> 50 µg/mL
CCCCCC[C@H]1C(=O)O[C@H](C)[C@H](NC(=O)c2cccc(NC=O)c2OC)C(=O)O[C@@H](C)[C@@H]1OC(=O)CCC (tested in a mixture with another compound)	3.81 µM	27.2 µM	4.99 µM	33.9 µM	8.67 µM	23.8 µM	9.53 µM	49.2 µM	13 µM	34.4 µM	24.2 µM	66.1 µM	3.64 µM	18.8 µM	8.2 µM	21.5 µM
Cn1c(=O)c2c(nc(N/N=C/c3ccccc3C(=O)O)n2C)n(C)c1=O	–	> 100 µM	–	> 100 µM	–	> 100 µM	–	> 100 µM	–	> 100 µM	–	> 100 µM	–	> 100 µM	–	> 100 µM
CC1(C)N=C(N)N=C(N)N1c1cccc(CCc2ccccc2)c1	0.566 µM	> 100 µM	0.299 µM	> 100 µM	0.269 µM	> 100 µM	0.551 µM	> 100 µM	0.429 µM	34.8 µM	5.5 µM	> 100 µM	0.282 µM	> 64.3 µM	0.113 µM	> 100 µM
